Reference: patent US11548890B1, “HPK1 antagonists and uses thereof” (Nimbus Saturn, Inc., priority 2019, dated 2023)

target: HPK1 (Homo sapiens (Human), UniProt Q92918); assay: HPK1 biochemical enzyme assay (microfluidic mobility shift assay); conditions: ATP 1 mM final concentration; 1.5 nM HPK1; 30 min preincubation; Caliper EZ Reader; read-out: HPK1 1000UMATP caliper IC50
Protocol: HPK1 biochemical enzyme assay: HPK1 enzyme inhibition was measured using a microfluidic mobility shift assay. […] Test compounds were titrated in ten point curves (top final assay concentration 3 μM), and preincubated with enzyme/substrate mix for 30 min prior to initiation of the reaction by addition of ATP (1 mM final concentration) and substrate (1 μM final concentration; Carna Biosciences) diluted in assay buffer supplemented by MgCl2 (final assay concentration of 5 mM). Following 60 min incubation at RT, the reaction was terminated by addition of 60 μl/well termination buffer (Carna Biosciences) and signal determination using a Caliper EZ Reader (Perkin Elmer, UK).
The compound numbers correspond to the compound numbers in Table 1.

Sequence of HPK1 (Q92918 whole entry): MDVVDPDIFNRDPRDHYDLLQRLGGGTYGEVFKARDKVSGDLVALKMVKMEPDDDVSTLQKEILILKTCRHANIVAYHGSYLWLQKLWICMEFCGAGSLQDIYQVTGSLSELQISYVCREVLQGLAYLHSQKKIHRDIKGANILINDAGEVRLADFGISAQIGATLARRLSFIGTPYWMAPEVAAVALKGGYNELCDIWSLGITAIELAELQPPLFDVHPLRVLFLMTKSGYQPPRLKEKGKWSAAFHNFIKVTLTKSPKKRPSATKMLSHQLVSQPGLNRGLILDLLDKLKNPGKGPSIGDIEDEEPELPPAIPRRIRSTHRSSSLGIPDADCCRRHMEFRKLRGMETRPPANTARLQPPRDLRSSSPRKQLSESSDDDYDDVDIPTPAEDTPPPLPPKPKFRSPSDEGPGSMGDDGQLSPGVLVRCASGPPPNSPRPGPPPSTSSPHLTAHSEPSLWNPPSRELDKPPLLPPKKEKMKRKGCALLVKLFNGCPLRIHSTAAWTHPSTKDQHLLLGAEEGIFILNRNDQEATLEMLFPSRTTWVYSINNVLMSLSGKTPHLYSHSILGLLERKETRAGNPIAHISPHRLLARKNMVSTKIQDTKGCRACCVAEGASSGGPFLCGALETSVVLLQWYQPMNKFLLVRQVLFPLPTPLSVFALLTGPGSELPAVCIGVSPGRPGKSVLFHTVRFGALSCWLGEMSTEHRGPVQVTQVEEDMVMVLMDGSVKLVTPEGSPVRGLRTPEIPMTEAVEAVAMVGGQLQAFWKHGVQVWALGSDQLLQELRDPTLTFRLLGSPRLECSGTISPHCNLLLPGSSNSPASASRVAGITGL

Row | Compound | IC50
1 | 7-((6-((dimethylamino)methyl)-4-(tetrahydrofuran-2-yl)pyridin-2-yl)amino)-4-(7-fluoroimidazo[1,2-a]pyridin-3-yl)isoindolin-1-one [I-852] | < 100 nM
2 | O=C1NCc2c(-c3cnc4cc(F)ccn34)ccc(Nc3ccc(N4CCO[C@@H](CNC5CC5)C4)cn3)c21 [I-495, 7-[[5-[(2S)-2-[(cyclopropyl-amino)methyl]morpholin-4-yl]-2-pyridyl]amino]-4-(7-fluoroimidazo [1,2-a]pyridin-3-yl)isoindolin-1-one] | < 100 nM
3 | C[C@H](c1ccc(Nc2ccc(-c3cnc4cc(F)ccn34)c3c2C(=O)NC3)nc1)N(C)C [I-521, (R)-7-((5-(1-(dimethylamino)-ethyl)pyridin-2-yl)amino)-4-(7-fluoroimidazo [1,2-a]pyridin-3-yl)isoindolin-1-one] | < 100 nM
4 | CO[C@H]1CC[C@H](c2ccc(Nc3ccc(-c4cnc5cc(F)ccn45)c4c3C(=O)NC4)nc2CN(C)C)C1 [I-793, 7-((6-((dimethylamino)-methyl)-5-((1S,3S)-3-methoxycyclo-pentyl)pyridin-2-yl)amino)-4-(7-fluoroimidazo [1,2-a]pyridin-3-yl)isoindolin-1-one] | < 100 nM
5 | CN(C)Cc1nc(Nc2ccc(-c3cnc4cc(F)ccn34)c3c2C(=O)NC3)ccc1OCC(F)F [I-835, 7-((5-(2,2-difluoroethoxy)-6-((dimethylamino)methyl)pyridin-2-yl)amino)-4-(7-fluoroimidazo[1,2-a]pyridin-3-yl)isoindolin-1-one] | < 100 nM
6 | (R)-7-((5-(2- (methoxymeth- yl)morpholino) pyridin-2- yl)amino)-4- (7- methylimidazo [1,2- a]pyrimidin-3- yl)isoindolin- 1-one [I-628] | < 100 nM

The remaining lines, values ahead:

Row | IC50 | Compound
7 | < 100 nM | CC(C)(N)[C@H]1CN(c2ccc(Nc3ccc(-c4cnc5cc(F)ccn45)c4c3C(=O)NC4)nc2)CCO1 (single isomer, unassigned) [I-671]
8 | < 100 nM | Cn1ccc2c(-c3ncc(Nc4ccc(N5CCC(O)CC5)cn4)c4c3CNC4=O)ccnc21 [I-139, 7-[[5-(4-hydroxy-1-piperidyl)-2-pyridyl]amino]-4-(1-methylpyrrolo [2,3-b]pyridin-4-yl)-2,3-dihydropy-rrolo[3,4-c]pyridin-1-one]
9 | < 100 nM | Cc1ccn2c(-c3ccc(Nc4ccc(N5CCOCC5)cn4)c4c3CNC4=O)cnc2c1 [I-145, 4-(7-methylimidazo [1,2-a]pyridin-3-yl)-7-[(5-morpholino-2-pyridyl)amino] isoindolin-1-one]
10 | < 100 nM | Cn1ccc2c(-c3ncc(Nc4ccc(N5CCOCC5)cn4)c4c3CNC4=O)cccc21 [I-221, 4-(1-methylindol-4-yl)-7-[(5-morpholino-2-pyridyl)amino]-2,3-dihydropy-rrolo[3,4-c]pyridin-1-one]
